Patent US20180110754A1, “CENICRIVIROC FOR THE TREATMENT OF FIBROSIS” (Tobira Therapeutics, Inc., priority 2015, published 2018)

Description: Subjects with a history of HIV-2, hepatitis B and/or C, cirrhosis of the liver or any known active or chronic active liver disease were excluded from the study.
Most AEs were mild or moderate (Grade 1 or Grade 2). […] None of the Grade ≥3 AEs (preferred terms) were reported in more than 1 subject.

O=C1Nc2ccc(Cl)cc2[C@@](C#CC2CC2)(C(F)(F)F)O1 [EFV, efavirenz, reference compound]
SAE: Suicidal ideation, n subjects (All CVC (N = 115), EFV (N = 28), through Week 48): 1 | Grade 3 or 4 AE: Suicidal ideation, n subjects (All CVC (N = 115), EFV (N = 28; Grade 4 event)): 1 | Deaths (EFV (N = 28)): 0 n | Grade 3 or 4 AE: Blood creatine phosphokinase increased, n subjects (human, in vivo, 48 week): 0 | Grade 3 or 4 AE: Cardiac disorders, n subjects (human, in vivo, 48 week): 0 | Grade 3 or 4 AE: Depression, n subjects (human, in vivo, 48 week): 1 | Grade 3 or 4 AE: Ear and labyrinth disorders, n subjects (human, in vivo, 48 week): 1 | Grade 3 or 4 AE: Investigations, n subjects (human, in vivo, 48 week): 1 | Grade 3 or 4 AE: Palpitations, n subjects (human, in vivo, 48 week): 0 | Grade 3 or 4 AE: Psychiatric disorders, n subjects (human, in vivo, 48 week): 1 | Grade 3 or 4 AE: Stress, n subjects (human, in vivo, 48 week): 0 | Grade 3 or 4 AE: Weight decreased, n subjects (human, in vivo, 48 week): 1 | AE Abnormal dreams, n subjects (human, in vivo, 48 weeks): 6 | AE Depression, n subjects (human, in vivo, 48 weeks): 3 | AE Diarrhoea, n subjects (human, in vivo, 48 weeks): 3 | AE Dizziness, n subjects (human, in vivo, 48 weeks): 8 | AE Fatigue, n subjects (human, in vivo, 48 weeks): 1 | AE Headache, n subjects (human, in vivo, 48 weeks): 0 | AE Insomnia, n subjects (human, in vivo, 48 weeks): 4 | AE Lymphadenopathy, n subjects (human, in vivo, 48 weeks): 4 | AE Nasopharyngitis, n subjects (human, in vivo, 48 weeks): 1 | AE Nausea, n subjects (human, in vivo, 48 weeks): 6 | AE Rash, n subjects (human, in vivo, 48 weeks): 5 | AE Syphilis, n subjects (human, in vivo, 48 weeks): 3 | AE Upper respiratory tract infection, n subjects (human, in vivo, 48 weeks): 2 | AE leading to discontinuation: Abnormal dreams, n subjects (human, in vivo, 48 weeks): 1 | AE leading to discontinuation: Aggression, n subjects (human, in vivo, 48 weeks): 0 | AE leading to discontinuation: Anxiety, n subjects (human, in vivo, 48 weeks): 1 | AE leading to discontinuation: Depression, n subjects (human, in vivo, 48 weeks): 1 | AE leading to discontinuation: Dermatitis allergic, n subjects (human, in vivo, 48 weeks): 1 | AE leading to discontinuation: Disturbance in attention, n subjects (human, in vivo, 48 weeks): 1 | AE leading to discontinuation: Dizziness, n subjects (human, in vivo, 48 weeks): 2 | AE leading to discontinuation: Ear and labyrinth disorders, n subjects (human, in vivo, 48 weeks): 1 | AE leading to discontinuation: Eye disorders, n subjects (human, in vivo, 48 weeks): 1 | AE leading to discontinuation: Gastrointestinal disorders, n subjects (human, in vivo, 48 weeks): 1 | AE leading to discontinuation: General disorders and administration site conditions, n subjects (human, in vivo, 48 weeks): 0 | AE leading to discontinuation: Hypoaesthesia, n subjects (human, in vivo, 48 weeks): 1 | AE leading to discontinuation: Insomnia, n subjects (human, in vivo, 48 weeks): 3 | AE leading to discontinuation: Malaise, n subjects (human, in vivo, 48 weeks): 0 | AE leading to discontinuation: Musculoskeletal and connective tissue disorders, n subjects (human, in vivo, 48 weeks): 1 | AE leading to discontinuation: Musculoskeletal discomfort, n subjects (human, in vivo, 48 weeks): 1 | AE leading to discontinuation: Nausea, n subjects (human, in vivo, 48 weeks): 1 | AE leading to discontinuation: Nervous system disorders, n subjects (human, in vivo, 48 weeks): 4 | AE leading to discontinuation: Photophobia, n subjects (human, in vivo, 48 weeks): 1 | AE leading to discontinuation: Psychiatric disorders, n subjects (human, in vivo, 48 weeks): 3 | AE leading to discontinuation: Rash, n subjects (human, in vivo, 48 weeks): 1 | AE leading to discontinuation: Skin and subcutaneous tissue disorders, n subjects (human, in vivo, 48 weeks): 2 | AE leading to discontinuation: Tachyphrenia, n subjects (human, in vivo, 48 weeks): 1 | AE leading to discontinuation: Thinking abnormal, n subjects (human, in vivo, 48 weeks): 0 | AE leading to discontinuation: Tinnitus, n subjects (human, in vivo, 48 weeks): 1 | Any AE leading to discontinuation of study drug, n subjects (human, in vivo, 48 weeks): 6 | Any AE, n subjects (human, in vivo, 48 weeks): 27 | Any Grade 3 AE, n subjects (human, in vivo, 48 weeks): 3 | Any Grade 4 AE, n subjects (human, in vivo, 48 weeks): 1 | Any SAE, n subjects (human, in vivo, 48 weeks): 1 | Grade 3 or 4 AE: Abdominal pain, n subjects (human, in vivo, 48 weeks): 0 | Grade 3 or 4 AE: Blindness unilateral, n subjects (human, in vivo, 48 weeks): 0 | Grade 3 or 4 AE: Corneal infection, n subjects (human, in vivo, 48 weeks): 0 | Grade 3 or 4 AE: Dermatitis allergic, n subjects (human, in vivo, 48 weeks): 1 | Grade 3 or 4 AE: Eye disorders, n subjects (human, in vivo, 48 weeks): 0 | Grade 3 or 4 AE: Gastrointestinal disorders, n subjects (human, in vivo, 48 weeks): 0 | Grade 3 or 4 AE: General disorders and administration site conditions, n subjects (human, in vivo, 48 weeks): 0 | Grade 3 or 4 AE: Infections and infestations, n subjects (human, in vivo, 48 weeks): 0 | Grade 3 or 4 AE: Pyrexia, n subjects (human, in vivo, 48 weeks): 0 | Grade 3 or 4 AE: Skin and subcutaneous tissue disorders, n subjects (human, in vivo, 48 weeks): 1 | Grade 3 or 4 AE: Tinnitus, n subjects (human, in vivo, 48 weeks): 1 | SAE: Blindness unilateral, n subjects (human, in vivo, 48 weeks): 0 | SAE: Corneal infection, n subjects (human, in vivo, 48 weeks): 0 | SAE: Depression, n subjects (human, in vivo, 48 weeks): 1 | SAE: Eye disorders, n subjects (human, in vivo, 48 weeks): 0 | SAE: Gastroenteritis, n subjects (human, in vivo, 48 weeks): 0 | SAE: Infections and infestations, n subjects (human, in vivo, 48 weeks): 0 | SAE: Psychiatric disorders, n subjects (human, in vivo, 48 weeks): 1 | Subjects who experienced a Grade ≥3 AE (human, in vivo, 48 weeks): 15%
